In ChEMBL document CHEMBL5120855, “Potent 2,3-dihydrophthalazine-1,4-dione derivatives as dual inhibitors for mono-ADP-ribosyltransferases PARP10 and PARP15” (Eur J Med Chem, 2022):

Experiments:
[1] = molecular target: T1, Protein mono-ADP-ribosyltransferase PARP12 (Homo sapiens, UniProt Q9H0J9); experiment: Inhibition of human PARP12
T1 sequence (Q9H0J9 whole entry): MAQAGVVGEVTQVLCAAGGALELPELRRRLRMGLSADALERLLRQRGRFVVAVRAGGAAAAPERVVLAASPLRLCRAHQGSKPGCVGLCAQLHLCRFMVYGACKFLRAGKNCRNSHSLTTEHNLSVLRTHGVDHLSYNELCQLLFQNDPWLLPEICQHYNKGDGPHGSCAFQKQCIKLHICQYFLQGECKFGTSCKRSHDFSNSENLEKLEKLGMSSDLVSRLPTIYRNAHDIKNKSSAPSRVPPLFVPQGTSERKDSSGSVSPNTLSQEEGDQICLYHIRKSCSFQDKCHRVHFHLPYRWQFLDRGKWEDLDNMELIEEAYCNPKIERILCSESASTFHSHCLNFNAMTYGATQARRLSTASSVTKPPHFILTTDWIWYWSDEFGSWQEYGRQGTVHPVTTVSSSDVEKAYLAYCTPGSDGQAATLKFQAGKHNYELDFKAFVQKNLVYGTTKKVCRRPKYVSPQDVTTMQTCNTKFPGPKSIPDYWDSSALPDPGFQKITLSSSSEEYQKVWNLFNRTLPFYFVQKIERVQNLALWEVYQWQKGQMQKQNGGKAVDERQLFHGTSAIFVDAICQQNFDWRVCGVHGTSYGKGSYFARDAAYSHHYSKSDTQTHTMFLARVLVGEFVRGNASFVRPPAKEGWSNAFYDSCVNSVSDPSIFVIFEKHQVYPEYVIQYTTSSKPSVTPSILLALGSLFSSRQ

[2] = molecular target: T2, Poly [ADP-ribose] polymerase tankyrase-2 (Homo sapiens, UniProt Q9H2K2); experiment: Inhibition of human N-terminal 6His-tagged TNKS2 (1030 to 1317 residues) expressed in Escherichia coli Rosetta2 (DE3) cells using NAD+ as substrate incubated for 10 mins by fluorescence based analysis
T2 sequence (Q9H2K2 whole entry): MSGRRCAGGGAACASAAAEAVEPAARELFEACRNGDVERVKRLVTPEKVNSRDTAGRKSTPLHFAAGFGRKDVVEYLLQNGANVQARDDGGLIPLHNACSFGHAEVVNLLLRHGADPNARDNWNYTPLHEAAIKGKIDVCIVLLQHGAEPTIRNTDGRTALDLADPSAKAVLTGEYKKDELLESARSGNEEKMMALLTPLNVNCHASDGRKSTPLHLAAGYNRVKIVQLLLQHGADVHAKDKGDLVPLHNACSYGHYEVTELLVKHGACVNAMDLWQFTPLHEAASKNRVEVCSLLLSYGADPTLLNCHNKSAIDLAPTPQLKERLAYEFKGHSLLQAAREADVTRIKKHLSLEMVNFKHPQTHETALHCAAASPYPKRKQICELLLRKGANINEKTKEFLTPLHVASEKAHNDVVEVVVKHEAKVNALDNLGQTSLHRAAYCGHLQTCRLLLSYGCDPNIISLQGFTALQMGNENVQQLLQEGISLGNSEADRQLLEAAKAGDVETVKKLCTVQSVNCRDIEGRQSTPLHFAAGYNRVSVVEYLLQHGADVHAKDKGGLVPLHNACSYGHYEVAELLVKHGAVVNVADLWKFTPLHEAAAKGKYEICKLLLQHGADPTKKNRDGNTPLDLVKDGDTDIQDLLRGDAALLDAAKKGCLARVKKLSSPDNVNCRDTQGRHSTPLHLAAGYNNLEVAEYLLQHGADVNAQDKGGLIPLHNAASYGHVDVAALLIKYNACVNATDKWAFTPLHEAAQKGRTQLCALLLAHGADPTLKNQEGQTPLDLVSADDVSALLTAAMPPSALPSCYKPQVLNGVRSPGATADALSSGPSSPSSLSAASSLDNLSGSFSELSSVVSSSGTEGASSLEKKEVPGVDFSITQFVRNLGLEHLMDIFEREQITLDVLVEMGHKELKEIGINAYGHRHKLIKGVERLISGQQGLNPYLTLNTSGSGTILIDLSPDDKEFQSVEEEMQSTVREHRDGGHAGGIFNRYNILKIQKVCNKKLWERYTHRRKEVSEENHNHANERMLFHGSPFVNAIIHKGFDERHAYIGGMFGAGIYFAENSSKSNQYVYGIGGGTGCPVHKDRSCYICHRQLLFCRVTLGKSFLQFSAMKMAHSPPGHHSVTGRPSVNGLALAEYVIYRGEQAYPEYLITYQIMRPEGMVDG

[3] = molecular target: T3, Protein mono-ADP-ribosyltransferase PARP10 (Homo sapiens, UniProt Q53GL7); experiment: Inhibition of human PARP-10 using NAD+ as substrate incubated for 10 mins by fluorescence based analysis
T3 sequence (Q53GL7 whole entry): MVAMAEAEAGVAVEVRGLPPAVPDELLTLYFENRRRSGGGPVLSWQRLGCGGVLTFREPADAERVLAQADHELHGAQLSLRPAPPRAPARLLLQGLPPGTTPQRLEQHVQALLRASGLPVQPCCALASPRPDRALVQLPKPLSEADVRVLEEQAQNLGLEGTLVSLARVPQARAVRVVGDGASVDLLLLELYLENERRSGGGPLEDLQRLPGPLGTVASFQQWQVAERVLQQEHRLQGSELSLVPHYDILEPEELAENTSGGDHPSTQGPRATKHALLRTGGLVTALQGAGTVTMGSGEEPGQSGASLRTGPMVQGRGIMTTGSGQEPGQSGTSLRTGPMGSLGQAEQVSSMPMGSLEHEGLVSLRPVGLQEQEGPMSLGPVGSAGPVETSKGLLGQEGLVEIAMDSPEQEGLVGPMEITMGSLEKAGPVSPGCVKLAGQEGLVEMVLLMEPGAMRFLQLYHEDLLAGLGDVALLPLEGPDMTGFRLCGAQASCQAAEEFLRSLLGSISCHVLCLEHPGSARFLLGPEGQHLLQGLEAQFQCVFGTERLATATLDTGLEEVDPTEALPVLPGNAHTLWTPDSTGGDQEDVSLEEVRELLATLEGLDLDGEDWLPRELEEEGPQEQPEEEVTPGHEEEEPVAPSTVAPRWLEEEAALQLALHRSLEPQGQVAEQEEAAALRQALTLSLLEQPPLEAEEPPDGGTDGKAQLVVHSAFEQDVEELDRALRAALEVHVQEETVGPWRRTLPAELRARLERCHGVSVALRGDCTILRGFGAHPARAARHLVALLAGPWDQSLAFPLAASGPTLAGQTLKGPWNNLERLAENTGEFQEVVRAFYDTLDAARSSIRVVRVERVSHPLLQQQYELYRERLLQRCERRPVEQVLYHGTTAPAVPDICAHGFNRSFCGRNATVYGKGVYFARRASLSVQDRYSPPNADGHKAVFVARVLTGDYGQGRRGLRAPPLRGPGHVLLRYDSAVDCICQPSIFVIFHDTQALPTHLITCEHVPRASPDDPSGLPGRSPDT

NC(=O)c1ccc(OCC2CCC2)cc1
IC50 [1]: > 10 µM
IC50 [2]: > 100 µM
IC50 [3]: 0.29 µM
